Source: patent US5321016A, “Use of certain substituted α-amino acids in treating stress-related psychiatric disorders” (Sandoz Pharmaceuticals Corp., priority 1986, dated 1994)

Tests used:
[1] = system: NMDA (N-Methyl-D-aspartic acid) receptors; assay: inhibition of NMDA-induced depolarizations of the isolated amphibian spinal cord (competitive antagonism); format: cell-based, toad or frog; settings: at 5 μM
Excerpt: The compounds of the invention further interact with excitatory amino acid systems, in particular they are competitive antagonists of NMDA (N-Methyl-D-aspartic acid) receptors, as indicated by an inhibitory effect on NMDA-induced depolarizations of the isolated amphibian spinal cord. This may be shown in the test performed in conventional manner (see for example D. R. Curtis et al., J. Physiol. (London) 150, 656-682 (1961) and R. H. Evans et al., Br. J. Pharmac. 67, 591-603 (1979) as follows:
A hemisected proximal part of the spinal cord of a toad or frog lies in a recording chamber being perfused by a Ringer solution (111 mM NaCl, 2 mM KCl, 2 mM CaCl2, 12 mM Glucose, Tris-buffer (pH 7.5, 10 mM). The dorsal root is pulled into the stimulating chambers, the ventral root into the recording chambers. A stimulator connected to the stimulating chambers is used. A DC high impedance preamplifier measures the DC potential between the ground lead sampling the main chamber and one of the recording chambers. The signal from the pre-amplifier is monitored on a CRO to display stimulated synaptic activity (dorsal root--ventral root potential, DR--VRP) or to a chart recorder to display slow changes in potential. […]
Antagonists are tested in two stages. […] In such cases pA2 values are calculated according to the formula […]

[2] = system: electroshock-induced convulsions; assay: inhibition of electroshock-induced convulsions in the mouse; format: in vivo, mouse (OF-1); settings: ip, 1 h, i.p., 60 minutes before shock, read-out: EDmin in the electroshock-induced convulsion test
Description: E. Swinyard, J. Am. Pharm. Assoc. Scient. Ed. 38, 201 (1949) and J. Pharmacol. Exptl. Therap. 106, 319 (1952)]. In this test groups of 3 mice (18-26 g, OF-1, Sandoz Basle) receive the test substance in a dosage of 3.2-100 mg/kg i.p. After 60 minutes a 50 mA, 200 ms long shock is applied with corneal electrodes smeared with electrolyte jelly. This supra-threshold shock produces tonic extensor convulsions of all extremities. Inhibition of the hindlimb extension is taken as a protective action. After investigation of several dose-levels an EDmin is estimated.

plasma corticosterone = assay: inhibition of plasma corticosterone rise induced by social stress in mice; format: in vivo, mouse (male, OF-1); settings: 0.3 to 3 mg/kg p.o.
Description: This can be shown in the following test:
One day before the experiment a group of 5 male mice (40-50 g, OF-1, Sandoz,Basle) were placed in a transparent makrolon cage Typ 3, which is cut in halves by a grid. The next day each mouse was given an oral dose of 0.3-30 mg/kg of a compound of the invention, Two hours later an isolated male mouse was introduced for 15 minutes into the empty half of the cage and two trained observers recorded the behaviour of the mice in terms of acts such as dig, push-dig and rattle. Blood plasma samples were then taken from the tested mice group and assayed for corticosterone concentrations using a modified method of Paerson-Murphy B. E., J. Clin. Endocrinology 27 (1967) 973-990. The procedure was repeated with a control group of 5 mice which was given only a solvent.

## NC(Cc1cc(CP(=O)(O)O)cc(-c2ccc(Cl)cc2)c1)C(=O)O (racemic) [Example 1, (±)-α-Amino-3-(4'-chloro-5-phosphonomethyl-[1.1'-biphenyl]-3-yl)propanoic acid]
[1]
  pA2 as NMDA receptor inhibitor: 7.3
[2]
  minimal effective dose: < 50 mg/kg

## NC(Cc1cc(CP(=O)(O)O)cc(-c2ccccc2)c1)C(=O)O (single isomer, unassigned) [Example 16, (+)-α-Amino-3-(5-phosphonomethyl-[1.1'-biphenyl]-3-yl) propanoic acid]
Plasma corticosterone
  inhibition of the rise of plasma-corticosterone (social stress): inhibits significantly
